Measurements reported in patent publication US20220089575A1, “FARNESOID X RECEPTOR AGONISTS AND USES THEREOF” (Metacrine, Inc., priority 2017, published 2022).

Molecular target: T1, hFXR (Homo sapiens, UniProt Q96RI1)
T1 construct: expressed in transfected cells; host or cells: CV-1 cells
T1 sequence (Q96RI1 1-486): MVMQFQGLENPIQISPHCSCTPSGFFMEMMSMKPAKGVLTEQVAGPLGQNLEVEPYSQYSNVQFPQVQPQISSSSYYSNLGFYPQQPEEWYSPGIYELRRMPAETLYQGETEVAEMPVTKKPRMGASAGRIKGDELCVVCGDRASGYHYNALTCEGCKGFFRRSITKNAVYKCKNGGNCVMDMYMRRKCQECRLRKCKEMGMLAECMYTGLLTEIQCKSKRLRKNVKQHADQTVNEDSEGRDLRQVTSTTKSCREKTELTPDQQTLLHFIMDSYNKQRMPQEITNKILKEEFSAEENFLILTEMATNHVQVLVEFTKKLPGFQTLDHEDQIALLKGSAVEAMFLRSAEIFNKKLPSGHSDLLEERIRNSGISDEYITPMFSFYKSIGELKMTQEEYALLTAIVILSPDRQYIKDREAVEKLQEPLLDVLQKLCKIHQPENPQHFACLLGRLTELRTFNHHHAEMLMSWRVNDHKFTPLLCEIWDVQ
T1 sequence (P19793 1-462 partner): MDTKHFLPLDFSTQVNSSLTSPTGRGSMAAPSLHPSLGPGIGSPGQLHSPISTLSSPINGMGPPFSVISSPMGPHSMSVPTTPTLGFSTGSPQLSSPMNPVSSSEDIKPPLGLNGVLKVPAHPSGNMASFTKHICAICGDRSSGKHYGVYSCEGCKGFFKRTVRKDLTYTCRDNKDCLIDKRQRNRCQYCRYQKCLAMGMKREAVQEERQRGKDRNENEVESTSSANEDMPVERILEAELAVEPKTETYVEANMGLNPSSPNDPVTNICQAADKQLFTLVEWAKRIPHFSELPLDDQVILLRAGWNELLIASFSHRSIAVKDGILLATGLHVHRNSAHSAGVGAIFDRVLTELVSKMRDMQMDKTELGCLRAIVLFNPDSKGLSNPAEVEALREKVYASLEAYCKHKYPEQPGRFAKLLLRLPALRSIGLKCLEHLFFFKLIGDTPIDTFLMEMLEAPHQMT
Assay: In Vitro FXR Assay (TK): TK-ECRE-luc reporter in transfected CV-1 cells
Type: cell-based
Details: 18 hrs, luminescence, maximum efficacy of <25% of the Fexarmine control classified as '+'
In short: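 Luciferase luminescence read-out from lysed CV-1 cells transiently co-expressing hFXR and hRXR with a TK-ECRE-luc reporter (pCMX-YFP co-transfected). Compound exposure lasted 18 h at 37 °C, 5% CO2, in medium containing charcoal super-stripped serum.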

EC50, ≤ 250 nM:
CN(C)c1ccc([C@H]2CC[C@H](CN(c3cccc(-c4cnc(C5CC5)s4)c3)C(=O)[C@H]3CC[C@H](OC(=O)N4CC(O)C4)CC3)CC2)cn1 [Compound 7.01, trans-4-((3-(2-Cyclopropylthiazol-5-yl)phenyl)((trans-4-(6-(dimethylamino)pyridin-3-yl)cyclohexyl)methyl)carbamoyl)cyclohexyl 3-hydroxyazetidine-1-carboxylate]
COc1ccc([C@H]2CC[C@H](CN(c3cccc(-c4cnc(C5CC5)s4)c3)C(=O)[C@H]3CC[C@H](OC(=O)N4CC(O)C4)CC3)CC2)cc1C [Compound 7.02, trans-4-((3-(2-Cyclopropylthiazol-5-yl)phenyl)((trans-4-(4-methoxy-3-methylphenyl)cyclohexyl)methyl)carbamoyl)cyclohexyl 3-hydroxyazetidine-1-carboxylate]
COc1ccc([C@H]2CC[C@H](CN(c3cc(-c4cnc(C5CC5)s4)ccn3)C(=O)[C@H]3CC[C@H](OC(=O)N4CC(O)C4)CC3)CC2)cc1C [Compound 7.03, trans-4-((4-(2-Cyclopropylthiazol-5-yl)pyridin-2-yl)((trans-4-(4-methoxy-3-methylphenyl)cyclohexyl)methyl)carbamoyl)cyclohexyl 3-hydroxyazetidine-1-carboxylate]
COc1ccc([C@H]2CC[C@H](CN(c3cc(-c4cnc(C(C)C)s4)ccn3)C(=O)[C@H]3CC[C@H](OC(=O)N4CC(O)C4)CC3)CC2)cc1C [Compound 7.04, trans-4-((4-(2-Isopropylthiazol-5-yl)pyridin-2-yl)((trans-4-(4-methoxy-3-methylphenyl)cyclohexyl)methyl)carbamoyl)cyclohexyl 3-hydroxyazetidine-1-carboxylate]
COc1ccc([C@H]2CC[C@H](CN(c3cccc(-c4cnc(C(C)C)s4)c3)C(=O)[C@H]3CC[C@H](OC(=O)N4CC(O)C4)CC3)CC2)nc1C [Compound 7.05, trans-4-((3-(2-Isopropylthiazol-5-yl)phenyl)((trans-4-(5-methoxy-6-methylpyridin-2-yl)cyclohexyl)methyl)carbamoyl)cyclohexyl 3-hydroxyazetidine-1-carboxylate]
COc1ccc([C@H]2CC[C@H](CN(c3cc(-c4cnc(C5CC5)s4)ccn3)C(=O)[C@H]3CC[C@H](OC(=O)N4CC(O)C4)CC3)CC2)nc1C [Compound 7.06, trans-4-((4-(2-Cyclopropylthiazol-5-yl)pyridin-2-yl)((trans-4-(5-methoxy-6-methylpyridin-2-yl)cyclohexyl)methyl)carbamoyl)cyclohexyl 3-hydroxyazetidine-1-carboxylate]
COc1ccc([C@H]2CC[C@H](CN(c3cc(-c4cnc(C(C)C)s4)ccn3)C(=O)[C@H]3CC[C@H](OC(=O)N4CC(O)C4)CC3)CC2)nc1C [Compound 7.07, trans-4-((4-(2-Isopropylthiazol-5-yl)pyridin-2-yl)((trans-4-(5-methoxy-6-methylpyridin-2-yl)cyclohexyl)methyl)carbamoyl)cyclohexyl 3-hydroxyazetidine-1-carboxylate]
COc1ccc([C@H]2CC[C@H](CN(c3cc(-c4cnc(C5CC5)s4)ccn3)C(=O)[C@H]3CC[C@H](OC(=O)N4CC(O)C4)CC3)CC2)cc1C#N [Compound 7.08, trans-4-(((trans-4-(3-Cyano-4-methoxyphenyl)cyclohexyl)methyl)(4-(2-cyclopropylthiazol-5-yl)pyridin-2-yl)carbamoyl)cyclohexyl 3-hydroxyazetidine-1-carboxylate]
COc1ccc([C@H]2CC[C@H](CN(c3cccc(-c4cnc(C5CC5)s4)c3)C(=O)[C@H]3CC[C@H](OC(=O)N4CC(O)C4)CC3)CC2)nc1C#N [Compound 7.09, trans-4-(((trans-4-(6-Cyano-5-methoxypyridin-2-yl)cyclohexyl)methyl)(3-(2-cyclopropylthiazol-5-yl)phenyl)carbamoyl)cyclohexyl 3-hydroxyazetidine-1-carboxylate]
COc1ccc([C@H]2CC[C@H](CN(c3cc(-c4cnc(C5CC5)s4)ccn3)C(=O)[C@H]3CC[C@H](OC(=O)N4CC(O)C4)CC3)CC2)nc1C#N [Compound 7.10, trans-4-(((trans-4-(6-Cyano-5-methoxypyridin-2-yl)cyclohexyl)methyl)(4-(2-cyclopropylthiazol-5-yl)pyridin-2-yl)carbamoyl)cyclohexyl 3-hydroxyazetidine-1-carboxylate]
COc1ccc([C@H]2CC[C@H](CN(c3cccc(-c4cnc(C5CC5)s4)c3)C(=O)[C@H]3CC[C@H](OC(=O)N4CC(O)C4)CC3)CC2)nc1C [Compound 7.11, trans-4-((3-(2-Cyclopropylthiazol-5-yl)phenyl)((trans-4-(5-methoxy-6-methylpyridin-2-yl)cyclohexyl)methyl)carbamoyl)cyclohexyl 3-hydroxyazetidine-1-carboxylate]
COc1ccc(C23CCC(CN(c4cccc(-c5cnn(C6CC6)c5)c4)C(=O)[C@H]4CC[C@H](OC(=O)N5CC(O)C5)CC4)(CC2)CC3)cc1C [Compound 7.12, 4-((3-(1-Cyclopropyl-1H-pyrazol-4-yl)phenyl)((4-(4-methoxy-3-methylphenyl)bicyclo[2.2.2]octan-1-yl)methyl)carbamoyl)cyclohexyl trans-3-hydroxyazetidine-1-carboxylate]
CN(C)c1ccc([C@H]2CC[C@H](CN(c3cccc(-c4cnn(C5CC5)c4)c3)C(=O)[C@H]3CC[C@H](OC(=O)N4CC(O)C4)CC3)CC2)cn1 [Compound 7.13, trans-4-((3-(1-Cyclopropyl-1H-pyrazol-4-yl)phenyl)((trans-4-(6-(dimethylamino)pyridin-3-yl)cyclohexyl)methyl)carbamoyl) cyclohexyl 3-hydroxyazetidine-1-carboxylate]
COc1ccc([C@H]2CC[C@H](CN(c3cccc(-c4cnn(C(C)C)c4)c3)C(=O)[C@H]3CC[C@H](OC(=O)N4CC(O)C4)CC3)CC2)cc1C [Compound 7.14, trans-4-((3-(1-Isopropyl-1H-pyrazol-4-yl)phenyl)((trans-4-(4-methoxy-3-methylphenyl)cyclohexyl)methyl)carbamoyl)cyclohexyl 3-hydroxyazetidine-1-carboxylate]
COc1ccc([C@H]2CC[C@H](CN(c3cccc(-c4cnn(C(C)C)c4)c3)C(=O)[C@H]3CC[C@H](OC(=O)N4CC(O)C4)CC3)CC2)nc1C [Compound 7.15, trans-4-((3-(1-Isopropyl-1H-pyrazol-4-yl)phenyl)((trans-4-(5-methoxy-6-methylpyridin-2-yl)cyclohexyl)methyl)carbamoyl)cyclohexyl 3-hydroxyazetidine-1-carboxylate]
COc1ccc([C@H]2CC[C@H](CN(c3cc(-c4cnn(C(C)C)c4)ccn3)C(=O)[C@H]3CC[C@H](OC(=O)N4CC(O)C4)CC3)CC2)cc1C [Compound 7.16, trans-4-((4-(1-Isopropyl-1H-pyrazol-4-yl)pyridin-2-yl)((trans-4-(4-methoxy-3-methylphenyl)cyclohexyl)methyl)carbamoyl)cyclohexyl 3-hydroxyazetidine-1-carboxylate]
COC(=O)CNC(=O)O[C@H]1CC[C@H](C(=O)N(C[C@H]2CC[C@H](c3ccc(OC)c(C)c3)CC2)c2cccc(-c3cnn(C4CC4)c3)c2)CC1 [Compound 7.17, Methyl 2-((((trans-4-((3-(1-cyclopropyl-1H-pyrazol-4-yl)phenyl)((trans-4-(4-methoxy-3-methylphenyl)cyclohexyl)methyl)carbamoyl)cyclohexyl)oxy)carbonyl)amino)acetate]
COc1ccc([C@H]2CC[C@H](CN(c3cccc(-c4cnn(C5CC5)c4)c3)C(=O)[C@H]3CC[C@H](OC(=O)NCC(=O)O)CC3)CC2)cc1C [Compound 7.18, 2-((((trans-4-((3-(1-Cyclopropyl-1H-pyrazol-4-yl)phenyl)((trans-4-(4-methoxy-3-methylphenyl)cyclohexyl)methyl)carbamoyl)cyclohexyl)oxy)carbonyl)amino)acetic acid]
COc1ccc([C@H]2CC[C@H](CN(c3cccc(-c4cnn(C5CC5)c4)c3)C(=O)[C@H]3CC[C@H](OC(=O)N4CC(O)C4)CC3)CC2)cc1C#N [Compound 7.19, trans-4-(((trans-4-(3-Cyano-4-methoxyphenyl)cyclohexyl)methyl)(3-(1-cyclopropyl-1H-pyrazol-4-yl)phenyl)carbamoyl)cyclohexyl 3-hydroxyazetidine-1-carboxylate]
